Key:
[1] = tested on: Normal human skin fibroblast (NHF); test: Cell proliferation, MTT assay (Example 1); format: cell-based; conditions: fluorescence 4 hrs, 100 mM PMG as positive control, vs untreated control
Description: The test was performed in the procedure described below: • 1. Cell: Normal human skin fibroblast (NHF) • 2. Chemical fluorescent body: CYALUME Light shape blue, orange and red Seller: OmniGlow Japan Co., Ltd. • 3. Assay: • (1) Seeded NHF to 24 well plate with 2.0×10^4 cells/well, DMEM·10% S(+) • (2) After confluent state is observed by culturing 5 days, it was transferred to non-color and non-blood-serum DMEM. • (3) Exposed to fluorescence (4 hrs.). 100 mM PMG additive system was used as the positive control. • (4) Observed the appearance of the cell (×40) • (5) The quantitative measurement of cell proliferation was made by using MTT assay and by means of colorimetric test with wavelengths of 540 nm for measurement and 655 nm for control. The cell proliferation rate was calculated by using the formula described below, setting the untreated control as 100%. • 4. Calculation formula Cell proliferation rate=([Sample addition OD(540 nm)]−[Sample addition OD(655 nm)])/([Control OD(540 nm)]−[Control OD(655 nm)])×100

Fibroblast(NHF) [2] = test: Fibroblast proliferation, MTT assay (Example 5); format: cell-based, human; conditions: PMG 100 mM (positive control); 24 hours
Description: (§1) • Cell:Fibroblast(NHF) • Chemical luminescence body (produced by OmniGlow Japan Co., Ltd.) • Normal type red (red fluorescent light) • High intensity orange (orange fluorescent light) • Collagen measurement kit: The amount of propeptide at the end of I type collagen C (PIP) is measured by Takara PIP kit. Assay: • (1)NHF is seeded at 2.0×10^4 to 24 well plate with DMEM·10% S(+). • (2) After confluent state is observed by culturing 5 days, it was transferred to non-color and non-blood-serum DMEM. • (3) Fluorescent light is allowed to irradiate (30 min.) by placing the chemical luminescent body in direct contact with 24 well plate. 100 mM PMG(phosphoric acid-L-magnesium ascorbate) addition system was prepared as the positive control. • (4) After 24 hours from the start of irradiation, the upper layer of the medium is recovered. • The amount of propeptide at the end of I type collagen C (PIP) is measured by Tatara PIP kit and then the calorimetric determination of cell proliferation is made by using MTT assay at observation wavelength of 540 nm and at reference wavelength of 655 nm. The cell proliferation rate is calculated by the formula below by setting the control of non-treated group as 100%. […]

Fibroblast(NHF) [3] = test: Collagen synthesis rate, PIP kit per MTT (Example 5); format: cell-based, human; conditions: PMG 100 mM (positive control); per unit cell; control = 100
Description: as §1

mouse melanoma(B16 cell) [4] = test: B16 cell proliferation rate (Abs 260 nm); format: cell-based; conditions: VC 1 mM addition (positive control); control = 100
Source text: (§2) • Cell: mouse melanoma(B16 cell) • Chemical luminescentbody: Normal type • Blue fluorescent light, orange fluorescent light, red fluorescent light, green fluorescent light, and yellow fluorescent light • High intensity type • Orange fluorescent light, red fluorescent light, and green fluorescent light (Produced by OmniGlow Japan Co., Ltd.) Assay: • 1. Seeded B16 cell to 24 well plate with […], MEM·10% S(+)·glucosamine culture medium. n=8 • 2. After culturing 5 days, it was transferred to MEM·10% S(+)·theophyline culture medium. • 3. Exposed to fluorescent light by placing the chemical luminescent body in contact with the plate for 4 hr. in the case of normal type and for 30 min. in the case of high intensity type. The control was under no exposure to fluorescent light and the positive control was in the 1 mMVC (Ascorbic acid) addition system. • 4. The cell was recovered three days after the start of exposure, dissolved into 0.1% DS normal saline solution, and then the optical density was measured at 260 nm (index of the amount of cell) and at 475 nm (index of the amount of melanin), and then the cell proliferation rate and the melanin synthesis rate per unit cell was calculated. • The B16 cell proliferation rate is shown in Table 4 and FIG. 7, and the melanin synthesis rate per unit cell is shown in Table 5 and FIG. 8. […]

mouse melanoma(B16 cell) [5] = test: Melanin synthesis rate per unit cell (Abs 475/260 nm); format: cell-based; conditions: VC 1 mM addition (positive control), control = 100
Source text: as §2

Compound	cell proliferation [1]	Fibroblast proliferation rate (%) (Fibroblast(NHF) [2])	Collagen synthesis rate (%) (Fibroblast(NHF) [3])	B16 cell proliferation rate (%) (mouse melanoma(B16 cell) [4])	Melanin synthesis rate (%) (mouse melanoma(B16 cell) [5])
phosphoric acid-L-magnesium ascorbate [PMG]	significantly promoted	138.2	127.6	–	–
O=C1O[C@H]([C@@H](O)CO)C(O)=C1O [VC, Ascorbic acid]	–	–	–	21.42	65.28
